Where two headings read alike, the source gives them in different places.
Legend:
[1] = for VMD: n = 6, mean ± sd
Experimental: It was evaluated in tidal breathing mode (TBM) only.
The output characteristics of the three nebulizers (one of each type) were measured to determine the particle size distribution, inspired dose, residual dose, nebulizer output and duration of nebulization. The nebulizer efficiency, defined as the inhaled fine particle dose as a percent of the total loaded dose, was also determined. Each nebulizer was studied in duplicate, for a total of 6 measures per device type.
Particle Sizing. Nebulizers were weighed dry, full, and at the end of each study to determine gravimetric output and residual volume. Nebulizers were connected to the inhalation cell of the Insitec Laser (Malvern Instruments Ltd, Malvern, Worcestershire, UK) using a flexible airtight connector. The nebulizer and inhalation cell were oriented in a horizontal position. The output end of the inhalation cell was connected to a vacuum generator providing a continuous flow of 20 LPM across the laser beam. For measurements made with the I-neb, the output end of the inhalation cell was connected to a breath simulator, which permitted cyclic particle size measurements using the following breathing pattern: Rate=15 bpm, Volume=500 mL, I.T=2.0 seconds. This is the breathing pattern used for the output studies as well.
Each study was timed from the beginning of nebulization and run for a total of 2 minutes. During the first minute, no measurements were made to allow for equilibration of the solution. Particle sizing was begun and analyzed continuously for the duration of the 2nd minute. All data points were averaged for each measure.
1. VMD: Volume Median Diameter
2. GSD: Geometric Standard Deviation
3. %<3p: The percent of particles <3 microns
4. %<5p: The percent of particles <5 microns
5. Duration: Two minute total cycle time

Sprague-Dawley rats = assay: 7-day inhalation dose range finding toxicology, rat
Experimental: Formulations. […] The formulations defined below were titrated by nebulization time to achieve the dose levels define in Table 21.
Results & Discussion (Rats). A 7-Day range-finding study with nebulized Formulation I Inhalation Solution was performed via inhalation through the nose of male and female Sprague-Dawley rats.

beagle dogs = assay: 7-day inhalation dose range finding toxicology, dog; format: in vivo
Experimental: Results & Discussion (Dogs). […] Dogs were exposed to either vehicle (citric acid/saccharin/sodium phosphate buffer), or Formulation I Inhalation Solution prepared in identical vehicle to achieve target doses of 2, 10 or 44 mg/kg/day for 7 days (Table 21). Administered doses were 2, 12 and 54 mg/kg/day. […] Methemoglobin levels in blood increased appreciably in the high-dose group and minimally above basal levels in the mid-dose group (Table 23). Gross necropsies of the treated groups were in general similar to controls which included the presence of small red foci in the lung area, were few in nature and not associated with a dose responsive test-article relationship. Histopathology included mild focal pneumonia with minimal to mild focal peribronchiolar/perivascular mononuclear cell infiltrate and minimal to mild focal alveolar mixed cell infiltrate in the lungs of both the vehicle and high dose groups (low- and mid-dose groups not examined). M/E ratios were decreased in high-dose group males. […] Therefore, based on the transient changes during this 7 day study, an NOAEL of 12 mg/kg/day was established.

in vivo [2] = conditions: rat, plasma
Experimental: Rats (n=3-4/group, ˜400 gm) were anesthetized with Isoflorane and the dry powder was insufflated intratracheally using a Penn-Century Insufflator (model DP-4: Philadelphia, Pa.). Blood was collected in heparinized tubes just prior to dosing, 5, 15, 30 and 60 minutes after dosing, immediately put on wet ice and then centrifuged at 13,000 rpm in a microcentrifuge for 45 sec. Plasma was harvested and frozen at −80° C. until analysis.

[3] = test system: monocrotaline-induced pulmonary hypertension; conditions: for RV:LV + S: MCT 50 mg/kg sc, three times per week for four weeks
[4] = test system: normal, healthy volunteers; conditions: human, device loaded sodium nitrite
Experimental: Vial 3 contained 0.1 mM sodium phosphate only. In the preliminary dose escalation to the maximum tolerated dose (MTD), immediately prior to administration, an equal portion of Vial 1 and Vial 2 were admixed and then diluted with Vial 3 contents as appropriate to achieve lower concentration dosing solutions for the dose-escalation protocol. Following establishment of the Vial 1+Vial 2 admixed test material MTD, additional dosing cohorts of 3 subjects were enrolled at the Vial 1+Vial 2 MTD, using Vial 3-diluted Vial 1 contents only.
Each subject also received vehicle control. The nebulizer used for this study was the Aerogen Idehaler. The Aerogen Idehaler is a combination of two units. The nebulization head is the Aeroneb® Solo (Aerogen, Galway, Ireland) and the aerosol-reservoir attachment Idehaler™ (Diffusion Technique Francais, Saint Etienne, France).

in vivo [5] = conditions: male, Sprague-Dawley, rat, plasma, 10 mg/kg; for half-life: T1/2, rat
[6] = test system: monocrotaline-induced pulmonary hypertension; assay: Monocrotaline model of pulmonary hypertension, inhaled nebulized liquid sodium nitrite; conditions: rat, 5 μg/kg liquid aerosol
[7] = 101 mg/kg/day inhaled (dose lowered after day 1)
[8] = high dose group after lowering of dose, printed (76)
[9] = inhaled or intranasal, 90 ug/kg
[10] = inhaled or intranasal, 700 ug/kg
[11] = inhaled or intranasal, IT (dry powder, normalized to 10 mg/kg)
[12] = inhaled or intranasal, IT (liquid, 10 mg/kg)

## O=NO [sodium nitrite]
[1]; Aeroneb Go
  GSD: 2.1 ± 0.1
  VMD: 4.6 ± 0.1
[1]; I-neb
  GSD: 1.8 ± 0.1
  VMD: 4.8 ± 0.5
[1]; PARI STAR
  GSD: 2.8 ± 0.1
  VMD: 1.7 ± 0.1
Sprague-Dawley rats; 4 mg/kg/day inhaled
  Mortality (%) Female: 0%
  Mortality (%) Male: 0%
  Peak MetHgb (%) On Day 1 Female: 1.0 ± 0.1%
  Peak MetHgb (%) On Day 1 Male: 1.0 ± 0.0%
  Peak MetHgb (%) On Day 7 Female: 1.3 ± 0.1%
  Peak MetHgb (%) On Day 7 Male: 1.0 ± 0.0%
Sprague-Dawley rats; 18 mg/kg/day inhaled
  Mortality (%) Female: 0%
  Mortality (%) Male: 0%
  Peak MetHgb (%) On Day 1 Female: 4.5 ± 1.2%
  Peak MetHgb (%) On Day 1 Male: 3.4 ± 0.3%
  Peak MetHgb (%) On Day 7 Female: 3.8 ± 0.6%
  Peak MetHgb (%) On Day 7 Male: 2.3 ± 0.2%
Sprague-Dawley rats; 101 mg/kg/day inhaled
  Peak MetHgb (%) On Day 1 Female: 50 ± 3.0%
  Peak MetHgb (%) On Day 1 Male: 41 ± 3.3%
Sprague-Dawley rats; [7]
  Mortality (%) Female: 30%
  Mortality (%) Male: 0%
Sprague-Dawley rats; Group 2 Low Dose
  % of particles < 3 μm: 97.6%
  MMAD: 1.0 μm
Sprague-Dawley rats; Group 3 Mid Dose
  % of particles < 3 μm: 87.6%
  MMAD: 1.4 μm
Sprague-Dawley rats; Group 4 High Dose
  % of particles < 3 μm: 78.5%
  MMAD: 1.7 μm
Sprague-Dawley rats; [8]
  Peak MetHgb (%) On Day 7 Female: 36 ± 3.0 %
  Peak MetHgb (%) On Day 7 Male: 16 ± 4.7 %
Beagle dogs; 2 mg/kg/day inhaled
  Mortality (%) Female: 0%
  Mortality (%) Male: 0%
  Peak MetHgb (%) On Day 1 Female: 0.35 ± 0.4%
  Peak MetHgb (%) On Day 1 Male: 0.2 ± 0.1%
  Peak MetHgb (%) On Day 7 Female: 0.2 ± 0.0%
  Peak MetHgb (%) On Day 7 Male: 0.2 ± 0.0%
Beagle dogs; 12 mg/kg/day inhaled
  Mortality (%) Female: 0%
  Mortality (%) Male: 0%
  Peak MetHgb (%) On Day 1 Female: 3.4 ± 1.3%
  Peak MetHgb (%) On Day 1 Male: 2.6 ± 0.5%
  Peak MetHgb (%) On Day 7 Female: 1.6 ± 0.2%
  Peak MetHgb (%) On Day 7 Male: 2.1 ± 0.5%
Beagle dogs; 54 mg/kg/day inhaled
  Mortality (%) Female: 0%
  Mortality (%) Male: 0%
  Peak MetHgb (%) On Day 1 Female: 19 ± 0.5%
  Peak MetHgb (%) On Day 1 Male: 16 ± 5.2%
  Peak MetHgb (%) On Day 7 Female: 17 ± 2.6%
  Peak MetHgb (%) On Day 7 Male: 16 ± 3.2%
Beagle dogs; Group 2 Low Dose
  % of particles < 3 μm: 86.2%
  MMAD: 1.2 μm
Beagle dogs; Group 3 Mid Dose
  % of particles < 3 μm: 73.9%
  MMAD: 1.7 μm
Beagle dogs; Group 4 High Dose
  % of particles < 3 μm: 73.3%
  MMAD: 1.9 μm
In vivo [2]; [9]
  AUC: 15.8 ng·h/mL
  Cmax: 1.8 µM
  Tmax: 5 min
  half-life: 4 min
In vivo [2]; [10]
  AUC: 292 ng·h/mL
  Cmax: 25.8 µM
  Tmax: 5 min
  half-life: 10 min
In vivo [2]; other: intratracheal insufflation of dry powder, 10 ug/kg
  Cmax: ~0.2 µM
[3]; dry powder 1 μg/kg intratracheal
  RV:LV + S: 0.363 ± 0.029
[3]; dry powder 10 μg/kg intratracheal
  RV:LV + S: 0.328 ± 0.025
[3]; high dose (10 μg/kg), p<0.05
  decrease of RV:LV+S: up to 48%
[4]
  well tolerated doses: less than or equal to 125 mg
In vivo [5]; [11]
  AUC: 4270 ng·h/mL
  Cmax: 172 µM
  half-life: 19 min
  Tmax: 5 min
In vivo [5]; [12]
  AUC: 2820 ng·h/mL
  Cmax: 164 µM
  half-life: 10 min
  Tmax: 15 min
In vivo [5]; iv, IV (10 mg/kg)
  AUC: 8120 ng·h/mL
  Cmax: 312 µM
  half-life: 20 min
  Tmax: 5 min
[6]
  plasma nitrite, extrapolated: ~0.1 µM
